Laboratory results as given in patent US20250034139A1, “AMINE COMPOUNDS HAVING ANTI-INFLAMMATORY, ANTIFUNGAL, ANTIPARASITIC, AND ANTICANCER ACTIVITY” (PHARMA CINQ, LLC, priority 2013, published 2025).
Marks after values point to notes of the source that are not given here.

What was measured:
THP-1 cells = test: Example D: LPS-triggered THP-1 cell death assay, acute/5-hour and chronic/48-hour; format: cell-based, Human; conditions: 10 ng/ml LPS, 0.1 μM test compound, 48 hours
Method: Compounds of the invention were tested at 0.1 μM versus AC in the LPS-triggered THP-1 cell death assay. Both acute/5-hour and chronic/48-hour phases of cell death were assessed. Compounds were screened in batches with DMSO as the negative control and AC as the high activity control.

[1] = system: EAE induced by PLP139-151; test: Example G: Experimental Autoimmune Encephalitis (EAE) mouse model of multiple sclerosis; format: in vivo; conditions: for EAE Score on Day 46: 60 μmol/kg by oral gavage from Day 14, score 0-5; for EAE Score on Day 14 (Before Treatment): baseline, score 0-5
[2] = system: PC-3 prostate cancer cells; test: Example T: sensitisation of PC-3 cells to doxorubicin, oxaliplatin, paclitaxel or vincristine, Wst1; format: cell-based, human; conditions: PC-3 cells, 72 hours; for viability at 2.5 µM: compound 2.5 μM alone; for Doxorubicin 3.5 μM: percent cell survival / Oxaliplatin 100 μM: percent cell survival / Paclitaxel 50 μM: percent cell survival / Vincristine 100 nM: percent cell survival: chemotherapy agent alone normalized to 100%
[3] = system: 4T1 mouse mammary breast cancer cells; test: Example O: syngeneic 4T1 breast cancer growth in Balb/C mice; format: in vivo; conditions: for Final Tumor Volume / Δ BW % / Final Body Weight / Initial Body Weight: 4T1 in female Balb/C mice; for Final Tumor Volume: 120 μmol/kg/day oral gavage, day 2 to day 30; for Δ BW % / Final Body Weight / Initial Body Weight: 120 μmol/kg/day oral; for Δ BW %: final vs initial body weight; for Final Body Weight: in g (unit assumed); for Initial Body Weight: initial (baseline)
Method: Cancer models in mice generally either involve syngeneic murine tumors in immunocompetent mice or xenografts of human tumors in immunocompromised mice. […] Mice received test compounds by oral gavage in 1% hydroxypropylmethylcellulose from day 2 until day 30. Tumor growth was assessed by caliper measurements twice per week and tumor weight after necropsy, and body weight was also monitored. Treatment groups were: • 1. […] HPMC) • 2. CI (120 μmol/kg/day) • 3. BA (120 μmol/kg/day) • 4. CP (120 μmol/kg/day) • 5. CQ (120 μmol/kg/day) • 6. AA (120 μmol/kg/day) • 7. AC (120 μmol/kg/day)

[4] = system: 4T1 murine breast cancer cells; test: Example S: in vitro anticancer screen, 4T1 cells, Wst1; format: cell-based, mouse; conditions: Mus musculus, 4T1, 18 h, 18 hr, Wst1; for viability at 1 µM: read-out: 4T1 1 μM, percent of cancer cell survival relative to vehicle treated cells; for viability at 5 µM: read-out: 4T1 5 μM, percent of cancer cell survival relative to vehicle treated cells
Summary of the method: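 4T1 cells seeded at 1×10^4/well were exposed to compound at 1 μM or 5 μM for 18 hr after plating. Wst1 tetrazolium dye was then added for about 2 hr and absorbance read at 450 nm (reference 630 nm). Values are percent survival relative to vehicle-treated cells.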

[5] = system: PC3 human prostate cancer cells; test: Example S: in vitro anticancer screen, PC-3 cells, Wst1; format: cell-based; conditions: Homo sapiens, PC-3, approximately 20 hours, Wst1, read-out: PC-3, percent of cancer cell survival relative to vehicle treated cells
Summary of the method: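 PC-3 cells, 2×10^4 cells/well, exposed ~20 h to vehicle or compound at 0.4, 0.5 or 2.5 μM as specified per compound. Wst1 dye added for 2 h; absorbance 450 nm (reference 630 nm), triplicates. Values are percent cell survival versus vehicle-treated cells.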

[6] = system: HCT-116 colon adenocarcinoma cells; test: Example Q: HCT-116 liver metastases of human colorectal cancer in nude mice; format: in vivo; conditions: 240 μmol/kg/day oral, 28 days
Description: A major cause of morbidity and mortality in patients with colorectal cancer is metastasis of the tumor into the liver; colorectal cancer can often be successfully resected from the primary site, but metastases to the liver are much less accessible to surgical treatment. A mouse model of colorectal cancer metastasis to the liver has been established, using HCT-116 colon adenocarcinoma cells injected into the spleen of athymic (nude) mice. The HCT-116 cancer cells spontaneously spread from the spleen into the liver via the circulation, and they form tumors in the liver (Ishizu, K., Sunose, N., Yamazaki, K., Tsuruo, T., Sadahiro, S., Makuuchi, H., and Yamori, T. Development and Characterization of a Model of Liver Metastasis Using Human Colon Cancer HCT-116. Biol. Pharm. Bull. 2007, 30(9):1779-1783).
Mice (female Hsd:athymic nude-Foxn1^nu) were anesthetized with xylazine/ketamine intraperitoneal injection, followed by incision approximately 10 mm on the left subcostal region (area disinfected with ethanol) to expose the peritoneum. The peritoneum was opened for about 8 mm near the spleen, and 2.5×10^6 cells in 50 μL PBS were injected into the spleen using a 30G needle. The spleen was repositioned, and the surgical area was closed using sutures and clips.
The day after receiving cells, mice were randomized into groups of five based upon body weight to provide groups with approximately equivalent mean body weight. Mice received a single, daily oral dose of test article or vehicle (1% hydroxypropylmethylcellulose) beginning 48 hours following cell injection into the spleen.
At study termination 28 days after HCT-116 cell injection, body weights were recorded, and spleens and livers were removed, weighed and fixed in 10% formalin. Livers were sectioned and stained; the relative areas of normal and tumor tissue were quantified in histology sections with quantitative planimetry software.

[7] = system: Vit-D3 activated THP-1 cells; test: Example B: Acridine Orange (A.O.) uptake, lysosomal acidification and integrity; format: cell-based, Human; conditions: 5 hours
Method: In this experiment, cell viability was monitored and uptake and accumulation of acridine orange, a lysosomotropic fluorescent dye, was used to assess lysosomal acidification and integrity. JC-1 dye was used to measure effects of test compounds on mitochondrial membrane potential (MMP); reduction of MMP is a feature of apoptotic cell death. • 1. […] The tubes were washed twice in DPBS, resuspended in 500 μl DPBS and acquired on the FACSCalibur.

[8] = system: Cryptococcus neoformans (serotype D); test: Example K: Cryptococcus neoformans (serotype D) growth inhibition; format: cell-based
S. cerevisiae = test: Example I: Saccharomyces cerevisiae growth inhibition (OD 600 nm); format: cell-based; conditions: tested 4 to 50 μM
[9] = Homo sapiens, Wst1, vehicle = 100, read-out: No Chemo: percent cell survival
[10] = compound 2.5 μM + doxorubicin 3.5 μM
[11] = compound 2.5 μM + oxaliplatin 100 μM
[12] = compound 2.5 μM + paclitaxel 50 μM
[13] = compound 2.5 μM + vincristine 100 nM
[14] = HCT-116 liver metastases, nude mice

Row | SMILES | Viable cell percent change, Chronic/48-hour, Mean (THP-1 cells) [%] | EAE Score on Day 46 [1] | EAE Score on Day 14 (Before Treatment) [1] | viability at 2.5 µM [2, 9] [%] | Doxorubicin 3.5 μM: percent cell survival [2, 10] [%] | Oxaliplatin 100 μM: percent cell survival [2, 11] [%] | Paclitaxel 50 μM: percent cell survival [2, 12] [%] | Vincristine 100 nM: percent cell survival [2, 13] [%] | Final Tumor Volume [3] [mm^3] | Δ BW % [3] [%] | Final Body Weight [3] | Initial Body Weight [3] [g] | viability at 1 µM [4] [%] | viability at 5 µM [4] [%] | viability at 2.5 µM [5] [%] | further results
1 | CCCCCCOc1ccccc1OCCNc1ccnc2ccccc12 [CP, N-{2-[2-(Hexyloxy)phenoxy]ethyl}quinolin-4-amine] | 49.81 | 1.86 ± 0.34 | 0.86 ± 0.14 | 35.6 | 72.4 | 76.5 | 74.5 | 48.2 | 352 ± 114 | −0.0 | 24.1 ± 1.3 | 24.1 ± 0.9 | 82.6 | 38 | 35.6 | 
2 | CCCCCCOc1ccccc1OCCCNc1ccnc2ccccc12 [CQ, N-{3-[2-(Hexyloxy)phenoxy]propyl}quinolin-4-amine] |  |  |  | 95.8 | 86.5 | 93.8 | 34.8 | 47.1 | 140 ± 60 | −2.0 | 24.4 ± 0.9 | 24.9 ± 0.6 | 71.9 | 57.9 | 95.8 | tumor growth versus vehicle-treated mice, in words ([3]; daily oral administration, 120 μM/kg/day as printed): most active of the compounds tested in this experiment; excess of the Vehicle group's liver weight/body weight ratio over the treated group [6]: 12%; area of liver invaded by metastatic cancer cells, in words ([6]; histology planimetry): markedly reduced the area of liver invaded by metastatic cancer cells; Final Body Weight Grams [6, 14]: 26.2 ± 0.9 NS Grams; Liver Weight % of Body Weight [6, 14]: 5.3 ± 0.1%; Tumor Area % of Vehicle Group [6, 14]: 0.15% *; Tumor Area % of Total Liver ([6]; HCT-116 liver metastases, nude mice, histology planimetry): 0.02 ± 0.01%
3 | CCCCCCOc1ccc(OCCCCNc2ccnc3ccccc23)cc1 [CZ, N-{4-[4-(Hexyloxy)phenoxy]butyl}quinolin-4-amine] | 53.70 | 2.29 ± 0.20 | 1.00 ± 0.00 |  |  |  |  |  |  |  |  |  | 50.6 | 28.3 |  | viability at 0.4 µM ([2]; Homo sapiens, compound 0.4 μM alone, Wst1, vehicle = 100, read-out: No Chemo: percent cell survival): 96.7%; Doxorubicin 3.5 μM: percent cell survival ([2]; compound 0.4 μM + doxorubicin 3.5 μM): 89.1%; Oxaliplatin 100 μM: percent cell survival ([2]; compound 0.4 μM + oxaliplatin 100 μM): 91.1%; Paclitaxel 50 μM: percent cell survival ([2]; compound 0.4 μM + paclitaxel 50 μM): 101.9%; Vincristine 100 nM: percent cell survival ([2]; compound 0.4 μM + vincristine 100 nM): 90.3%; viability at 0.4 µM ([5]; 0.4 μM): 96.7%
4 | CCN(CC)CCCC(C)Nc1ccnc2cc(Cl)ccc12 (stereo not drawn) [Chloroquine, Chloroquine diphosphate, reference compound] |  |  |  |  |  |  |  |  |  |  |  |  |  |  |  | A.O. FL-3 fluorescence (MFI) percent change from DMSO no LPS, Mean ± SE ([7]; 50.0 μM C.Q., 1 ng/ml LPS): −72.28 ± 0.78%; A.O. FL-3 fluorescence (MFI) percent change from DMSO no LPS, Mean ± SE ([7]; 100.0 μM C.Q., 1 ng/ml LPS): −88.28 ± 1.60%; A.O. FL-3 fluorescence (MFI) percent change from DMSO no LPS, Mean ± SE ([7]; 100.0 μM C.Q., No LPS): −91.25 ± 0.60%; IC50 ([8]; Cryptococcus deneoformans): > 100 µM; growth inhibition of Cryptococcus neoformans (maximum) ([8]; chloroquine at a concentration of 100 micromolar): less than 50%; inhibition at 100 µM ([8]; read-out: growth inhibition of Cryptococcus neoformans (maximum), chloroquine at a concentration of 100 micromolar): 40%; inactive compound (inhibition of yeast growth, in words) (S. cerevisiae): did not show any inhibition of yeast growth up to 50 uM
5 | CN(C(=O)c1c(O)c2ccccc2n(C)c1=O)c1ccccc1 [Linomide, reference compound] |  | 2.29 ± 0.48 | 0.93 ± 0.19 |  |  |  |  |  |  |  |  |  |  |  |  | 
